From patent US12076363B2, “Peptide epoxyketone proteasome inhibitors in combination with PIM kinase inhibitors for treatment of cancers” (ONYX PHARMACEUTICALS, INC., priority 2013, dated 2024)

Experiments:
PIM-2 [1] = assay: PIM-2 ubiquitination (K-ε-GG ubiquitin remnant profiling) after proteasome inhibitor treatment, U266 cells; type: cell-based; conditions: PIM-2 lysine 61; U266 (4 hr); 125 nM; vs DMSO control
Procedure: (§1) Multiple myeloma cells were used to identify pro-survival proteins that were stabilized upon carfilzomib exposure by monitoring an increase in ubiquitination at specific sites associated with degradation. Two multiple myeloma cell lines, U266 and NCI-H929, were treated for 1 and 4 hours at 125 nM concentration of carfilzomib and bortezomib. DMSO treated cells were used as a control. The concentrations of active agents used were set at the IC80 of chymotrypsin activity inhibition and 48 hr cytotoxicity. The subunit inhibition profile obtained for these concentrations in vitro mimicked the subunit inhibition profile for carfilzomib in patients treated with a dose of 27 mg/m^2. Washed cell pellets were processed and profiled for ubiquitin modified proteins using a specific di-glycine antibody (PTMScan® Ubiquitin Remnant Motif (K-ε-GG) Kit #5562) that recognizes all lysine ubiquitin linkages on ubiquitin ligase substrates. All lysines on a protein that are modified with ubiquitin can be identified by this approach, and the lysines distal from the phosphorylation sites can then be associated with degradation. […] The increase in ubiquitin was also time dependent in NCI-H929 (Table 1).

PIM-2 [2] = assay: PIM-2 ubiquitination (K-ε-GG ubiquitin remnant profiling) after proteasome inhibitor treatment, NCI-H929 cells; type: cell-based; conditions: PIM-2 lysine 61, 125 nM, vs DMSO control
Procedure: as §1

| Compound | Ubiquitin fold increases (PIM-2 [1]) | Ubiquitin fold increases (PIM-2 [2]; H929 (1 hr)) | Ubiquitin fold increases (PIM-2 [2]; H929 (4 hr)) |
| --- | --- | --- | --- |
| CC(C)C[C@H](NC(=O)[C@H](Cc1ccccc1)NC(=O)c1cnccn1)B(O)O [BTZ, bortezomib] | 31.5 fold | 11 fold | 21.4 fold |
| CC(C)C[C@H](NC(=O)[C@H](CCc1ccccc1)NC(=O)CN1CCOCC1)C(=O)N[C@@H](Cc1ccccc1)C(=O)N[C@@H](CC(C)C)C(=O)[C@@]1(C)CO1 [CFZ, carfilzomib] | 34.6 fold | 10.7 fold | 24.9 fold |
